Assay results from patent US20250195530A1, “POLQ INHIBITORS” (ASTRAZENECA AB, priority 2022, published 2025).
Read-outs that look alike come from different tables or passages of the source. Each block holds one molecule with its values, some of them ahead of it.

Key:
DLD-1 BRCA2−/− cells = assay: Homologous recombination synthetic lethal inhibition of proliferation, DLD-1 BRCA2-/- (Cell Titre Glo 3D); type: cell-based; conditions: for IC50: Homo sapiens; for POLQ PD Prolif Lumin BRCA2 −/− mean pIC50: DLD-1 BRCA2 −/−
Method in brief: (§1)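 Read-out: CellTiter-Glo 3D luminescence, day 7 for wt DLD-1, day 12 for BRCA2−/−, about 8-9 population doublings each. Seeding 1,500 or 3,000 cells/mL respectively. Dose range 10 μM–0.51 nM, 3-fold, 10 points, with re-dosing on day 6. IC50 from curve fit.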

DLD-1 cells = assay: Inhibition of proliferation, DLD-1 BRCA2 wt control (Cell Titre Glo 3D); type: cell-based; conditions: for IC50: Homo sapiens; for POLQ PD Prolif Lumin DLD1 mean pIC50: DLD1 BRCA2 wt
Method in brief: as §1

[1] = DLD-1, first proliferation column (c5), DLD-1 BRCA2-/-, read-out: POLQ PD Prolif Lumin (converted)
[2] = DLD-1, second proliferation column (c6), DLD-1 BRCA2 wt control, read-out: POLQ PD Prolif Lumin (converted)
[3] = DLD-1, 288 h, DLD-1 BRCA2−/− cells, 12 days, read-out: POLQ PD Prolif Lumin BRCA2 −/− mean pIC50 (converted)
[4] = DLD-1, 168 h, DLD-1 BRCA2 wt cells, 7 days, read-out: POLQ PD Prolif Lumin DLD1 mean pIC50 (converted)
[5] = DLD-1, DLD-1 BRCA2 −/−, mean, read-out: POLQ PD Prolif Lumin BRCA2 −/− mean pIC50 (converted)
[6] = DLD-1, DLD1 BRCA2 wt, mean, read-out: POLQ PD Prolif Lumin DLD1 mean pIC50 (converted)
[7] = DLD-1, DLD-1 BRCA2-/- proliferation, column head only partly shown, read-out: POLQ PD Prolif Lumin (converted)
[8] = DLD-1, DLD-1 BRCA2 wt control proliferation, column head only partly shown, read-out: POLQ PD Prolif Lumin (converted)

IC50 (DLD-1 cells; [2]): > 10 µM
SMILES: Cc1cncc(Cn2c(-c3ccc(OCCN4CCNCC4)cc3Cl)nc3c(OC4(C)CC4)ncnc32)c1 [Example T530, 8-(2-chloro-4-(2-(piperazin-1-yl)ethoxy)phenyl)-6-(1-methylcyclopropoxy)-9-((5-methylpyridin-3-yl)methyl)-9H-purine]
IC50 (DLD-1 BRCA2−/− cells; [1]): 1 µM

IC50 (DLD-1 cells; [4]): > 10 µM
SMILES: CC(=O)N1CCN(c2cc(C)c(-c3nc4c(OC5(C)CC5)ncnc4n3Cc3ccccc3)cn2)CC1 [Example C2, 1-(4-(5-(9-benzyl-6-(1-methylcyclopropoxy)-9H-purin-8-yl)-4-methylpyridin-2-yl)piperazin-1-yl)ethan-1-one]
IC50 (DLD-1 BRCA2−/− cells; [3]): 0.316 µM

IC50 (DLD-1 cells; [6]): > 10 µM
SMILES: COc1ccc(Cl)cc1Cn1c(-c2cccc(CCCC(C)C(=O)O)c2Cl)nc2c(OC3(C)CC3)ncnc21 (racemic) [Example U55, 5-(2-chloro-3-(9-(5-chloro-2-methoxybenzyl)-6-(1-methylcyclopropoxy)-9H-purin-8-yl)phenyl)-2-methylpentanoic acid]
IC50 (DLD-1 BRCA2−/− cells; [5]): 0.126 µM

IC50 (DLD-1 cells; [4]): 7.94 µM
SMILES: Cc1cc(OCCN2CCN(C)CC2)ncc1-c1nc2c(OC3(C)CC3)ncnc2n1Cc1ccccc1 [Example C3, 9-benzyl-8-(4-methyl-6-(2-(4-methylpiperazin-1-yl)ethoxy)pyridin-3-yl)-6-(1-methylcyclopropoxy)-9H-purine]
IC50 (DLD-1 BRCA2−/− cells; [3]): 0.316 µM

IC50 (DLD-1 cells; [4]): > 10 µM
SMILES: CC(=O)N1CC(Oc2cc(C)c(-c3nc4c(OC5(C)CC5)ncnc4n3Cc3ccccc3)cn2)C1 [Example G10, 1-(3-((5-(9-benzyl-6-(1-methylcyclopropoxy)-9H-purin-8-yl)-4-methylpyridin-2-yl)oxy)azetidin-1-yl)ethan-1-one]
IC50 (DLD-1 BRCA2−/− cells; [3]): 0.631 µM

IC50 (DLD-1 cells; [8]): > 10 µM
SMILES: Cc1cnc(Cn2c(-c3ccc(OC4CCCNCC4)cc3Cl)nc3c(OC4(C)CC4)ncnc32)s1 (single isomer, unassigned) [Example T242, 2-((8-(4-(azepan-4-yloxy)-2-chlorophenyl)-6-(1-methylcyclopropoxy)-9H-purin-9-yl)methyl)-5-methylthiazole]
IC50 (DLD-1 BRCA2−/− cells; [7]): 0.794 µM

IC50 (DLD-1 cells; [8]): > 10 µM
SMILES: Cc1ccnc(Cn2c(-c3ccc(CC(=O)N(C)C)cc3Cl)nc3c(OC4(C)CC4)ncnc32)c1 [Example T210, 2-(3-chloro-4-(6-(1-methylcyclopropoxy)-9-((4-methylpyridin-2-yl)methyl)-9H-purin-8-yl)phenyl)-N,N-dimethylacetamide]
IC50 (DLD-1 BRCA2−/− cells; [7]): 0.316 µM

IC50 (DLD-1 cells; DLD-1, 168 h, DLD-1 (BRCA2 wt control), 7 days, Cell Titre Glo 3D, read-out: POLQ PD Prolif Lumin DLD1 Mean pIC50 (converted)): > 10 µM
SMILES: C[C@@H](CCOc1ccc(-c2nc3c(OC4(C)CC4)ncnc3n2Cc2cccc(Cl)c2)c(Cl)c1)C(=O)O (single isomer, unassigned; isomer 2) [Example 35, 4-(3-Chloro-4-(9-(3-chlorobenzyl)-6-(1-methylcyclopropoxy)-9H-purin-8-yl)phenoxy)-2-methylbutanoic acid (Isomer 2)]
IC50 (DLD-1 BRCA2−/− cells; DLD-1, 288 h, DLD-1 BRCA2−/−, 12 days, Cell Titre Glo 3D, read-out: POLQ PD Prolif Lumin BRCA2 −/− Mean pIC50 (converted)): 0.126 µM

IC50 (DLD-1 cells; [2]): > 10 µM
SMILES: Cc1ccnc(Cn2c(-c3ccc(NC(=O)OCCO)cc3Cl)nc3c(OC4(C)CC4)ncnc32)c1 [Example T123, 2-hydroxyethyl (3-chloro-4-(6-(1-methylcyclopropoxy)-9-((4-methylpyridin-2-yl)methyl)-9H-purin-8-yl)phenyl)carbamate]
IC50 (DLD-1 BRCA2−/− cells; [1]): 0.2 µM

IC50 (DLD-1 cells; [2]): > 10 µM
SMILES: CC(CCOc1ccc(-c2nc3c(OC4(C)CC4)ncnc3n2Cc2cccc(C(C)(F)F)c2)c(Cl)c1)C(=O)O (racemic) [Example T544, 4-(3-chloro-4-(9-(3-(1,1-difluoroethyl)benzyl)-6-(1-methylcyclopropoxy)-9H-purin-8-yl)phenoxy)-2-methylbutanoic acid]
IC50 (DLD-1 BRCA2−/− cells; [1]): 0.501 µM

POLQ PD Prolif Lumin DLD1 mean pIC50 (DLD-1 cells; mean): <5.0
SMILES: COc1ccc(Cl)cc1Cn1c(-c2cccc(O[C@H]3CC[C@@H](C(=O)O)CC3)c2Cl)nc2c(OC3(C)CC3)ncnc21 [Example U50, (1s,4s)-4-(2-chloro-3-(9-(5-chloro-2-methoxybenzyl)-6-(1-methylcyclopropoxy)-9H-purin-8-yl)phenoxy)cyclohexane-1-carboxylic acid]
POLQ PD Prolif Lumin BRCA2 −/− mean pIC50 (DLD-1 BRCA2−/− cells; mean): 7.6

IC50 (DLD-1 cells; DLD-1, second proliferation column, DLD-1 BRCA2 wt control, read-out: POLQ PD Prolif Lumin (converted)): > 10 µM
SMILES: Cc1ccnc(Cn2c(-c3ccc(OCCN4CC5(CCN5)C4)cc3Cl)nc3c(OC4(C)CC4)ncnc32)c1 [Example T587, 8-(4-(2-(1,6-diazaspiro[3.3]heptan-6-yl)ethoxy)-2-chlorophenyl)-6-(1-methylcyclopropoxy)-9-((4-methylpyridin-2-yl)methyl)-9H-purine]
IC50 (DLD-1 BRCA2−/− cells; DLD-1, first proliferation column, DLD-1 BRCA2-/-, read-out: POLQ PD Prolif Lumin (converted)): 1 µM

IC50 (DLD-1 cells; [4]): > 10 µM
SMILES: Cc1cc(OCCN(C)C)ncc1-c1nc2c(OC3(C)CC3)ncnc2n1Cc1ccccc1 [Example G12, 2-((5-(9-benzyl-6-(1-methylcyclopropoxy)-9H-purin-8-yl)-4-methylpyridin-2-yl)oxy)-N,N-dimethylethan-1-amine]
IC50 (DLD-1 BRCA2−/− cells; [3]): 0.316 µM

IC50 (DLD-1 cells; [6]): > 10 µM
SMILES: CC(CCOc1ccc(-c2nc3c(OC4(C)CC4)ncnc3n2Cc2cc(Cl)ccc2C#N)c(Cl)c1)C(=O)O (racemic) [Example U9, 4-(3-chloro-4-(9-(5-chloro-2-cyanobenzyl)-6-(1-methylcyclopropoxy)-9H-purin-8-yl)phenoxy)-2-methylbutanoic acid]
IC50 (DLD-1 BRCA2−/− cells; [5]): 0.0794 µM

IC50 (DLD-1 cells; [8]): > 10 µM
SMILES: Cc1cnc(Cn2c(-c3ccc(OCCN4CCCC4)cc3Cl)nc3c(OC4(C)CC4)ncnc32)s1 [Example T239, 2-((8-(2-chloro-4-(2-(pyrrolidin-1-yl)ethoxy)phenyl)-6-(1-methylcyclopropoxy)-9H-purin-9-yl)methyl)-5-methylthiazole]
IC50 (DLD-1 BRCA2−/− cells; [7]): 0.251 µM

IC50 (DLD-1 cells; [2]): > 10 µM
SMILES: CNCCCOc1ccc(-c2nc3c(OC4(C)CC4)ncnc3n2Cc2cc(Cl)ccn2)c(Cl)c1 [Example T134, 3-(3-chloro-4-(9-((4-chloropyridin-2-yl)methyl)-6-(1-methylcyclopropoxy)-9H-purin-8-yl)phenoxy)-N-methylpropan-1-amine]
IC50 (DLD-1 BRCA2−/− cells; [1]): 0.126 µM

IC50 (DLD-1 cells; [4]): > 10 µM
SMILES: COc1cccc(Cn2c(-c3ccc(OCCN4CCNCC4)cc3Cl)nc3c(OC4(C)CC4)ncnc32)n1 [Example K10, 8-(2-chloro-4-(2-(piperazin-1-yl)ethoxy)phenyl)-9-((6-methoxypyridin-2-yl)methyl)-6-(1-methylcyclopropoxy)-9H-purine]
IC50 (DLD-1 BRCA2−/− cells; [3]): 1.58 µM

IC50 (DLD-1 cells; DLD-1, second proliferation column (c6), taken as DLD-1 BRCA2 wt, read-out: POLQ PD Prolif Lumin (converted)): > 10 µM
SMILES: Cc1ccnc(Cn2c(-c3ccc(N4C[C@H]5C[C@@H]4CN5)cc3Cl)nc3c(OC4(C)CC4)ncnc32)c1 [Example T336, 8-(4-((1R,4R)-2,5-diazabicyclo[2.2.1]heptan-2-yl)-2-chlorophenyl)-6-(1-methylcyclopropoxy)-9-((4-methylpyridin-2-yl)methyl)-9H-purine]
IC50 (DLD-1 BRCA2−/− cells; DLD-1, first proliferation column (c5), taken as DLD-1 BRCA2-/-, read-out: POLQ PD Prolif Lumin (converted)): 1.58 µM

IC50 (DLD-1 cells; [2]): 7.94 µM
SMILES: Cc1ccnc(Cn2c(-c3ccc(CCN4CCNCC4)cc3Cl)nc3c(OC4(C)CC4)ncnc32)c1 [Example T528, 8-(2-chloro-4-(2-(piperazin-1-yl)ethyl)phenyl)-6-(1-methylcyclopropoxy)-9-((4-methylpyridin-2-yl)methyl)-9H-purine]
IC50 (DLD-1 BRCA2−/− cells; [1]): 0.398 µM

IC50 (DLD-1 cells; DLD-1, DLD1 BRCA2 wt cells, mean, read-out: POLQ PD Prolif Lumin DLD1 mean PIC50 (converted)): > 10 µM
SMILES: CC1(Oc2ncnc3c2nc(-c2ccc(OCCC(=O)O)cc2Cl)n3Cc2cccc(Cl)c2Cl)CC1 [Example T85, 3-(3-chloro-4-(9-(2,3-dichlorobenzyl)-6-(1-methylcyclopropoxy)-9H-purin-8-yl)phenoxy)propanoic acid]
IC50 (DLD-1 BRCA2−/− cells; DLD-1, DLD-1 BRCA2 −/− cells, mean, read-out: POLQ PD Prolif Lumin BRCA2 −/− mean pIC50 (converted)): 0.794 µM

IC50 (DLD-1 cells; [2]): > 10 µM
SMILES: CC1(Oc2ncnc3c2nc(-c2ccc(OCCN4CCNCC4)cc2Cl)n3Cc2cc(C(F)F)ccn2)CC1 [Example T488, 8-(2-chloro-4-(2-(piperazin-1-yl)ethoxy)phenyl)-9-((4-(difluoromethyl)pyridin-2-yl)methyl)-6-(1-methylcyclopropoxy)-9H-purine]
IC50 (DLD-1 BRCA2−/− cells; [1]): 1 µM

IC50 (DLD-1 cells; [4]): > 10 µM
SMILES: CN1CCN(CCOc2ccc(-c3nc4c(OC5(C)CC5)ncnc4n3Cc3ncccn3)c(Cl)c2)CC1 [Example E6, 8-(2-chloro-4-(2-(4-methylpiperazin-1-yl)ethoxy)phenyl)-6-(1-methylcyclopropoxy)-9-(pyrimidin-2-ylmethyl)-9H-purine]
IC50 (DLD-1 BRCA2−/− cells; [3]): 1.58 µM

POLQ PD Prolif Lumin DLD1 mean pIC50 (DLD-1 cells; mean): <5.0
SMILES: COc1ccc(F)cc1Cn1c(-c2cccc(O[C@H]3C[C@@H](C(=O)O)C3)c2Cl)nc2c(OC3(C)CC3)ncnc21 [Example U74, (1s,3s)-3-(2-chloro-3-(9-(5-fluoro-2-methoxybenzyl)-6-(1-methylcyclopropoxy)-9H-purin-8-yl)phenoxy)cyclobutane-1-carboxylic acid]
POLQ PD Prolif Lumin BRCA2 −/− mean pIC50 (DLD-1 BRCA2−/− cells; mean): 7.2
